# Test results taken from patent publication US9527850B2, “Benzyl piperidine compounds as lysophosphatidic acid (LPA) receptor antagonist” (Merck Patent GmbH, priority 2011, dated 2016).
# Molecular target: T1, LPA2 receptor (LPA2R) (Homo sapiens, UniProt Q9HBW0)
# T1 construct: expressed in transfected cells; host or cells: U2OS
# Experiment: LPA2R-Calciumflux assay (intracellular calcium mobilisation, FLIPR)
# Format: cell-based
# Conditions: U2OS cells recombinant expressing LPA2R; inhibition of LPA-induced Ca-flux; 10 concentrations 30 uM to 1 nM, 1% DMSO
# Excerpt: The assay detects intra cellular calcium which is generated by cells upon activation of the LPA2 receptor by its ligand LPA. This transient calcium mobilization can be monitored using a commercial calcium detection kit (e.g. from Molecular Devices). The main component of such a kit is a dye, which becomes fluorescent when calcium is present—a transient fluorescence signal after laddition of a ligand to a test well are the result. Readers like the FLIPR (Molecular Devices) can be used to monitor such transient “Ca-flux” signals.
# The signals are calculated according to peak maximum minus base line.
# The assay is performed in microplates (384 wells per plate).
# LPA2R-Calciumflux Assay Protocol
# The assay is run according to the following procedure: • 50 uL seed cells (10000 cells/well in DMEM buffer) • Incubate 24 h at 37° C., 10% CO2 • aspirate medium • 50 uL add calcium dye 1×HBSS/HEPES buffer • incubate 1 h at 37° C. (“loading”) • equilibrate 10 min at RT • 5 uL add compounds in HEPES buffer • shake 10 sec. at 1000 rpm • incubate 15 min at RT • 20 uL add LPA (in the FLIPR Tetra) in Krebs-buffer/BSA & measurement
# The cells are seeded in DMEM buffer (DMEM, 10% FCS, 10 mM HEPES, 1% Pen/Strep).
# Dye loading is done in HBSS/HEPES buffer (100 mL 10×HBSS+20 mL 1M HEPES+880 mL water, pH 7.4)
# The LPA is added in Krebs/BSA buffer (120 mM NaCl, 5 mM KCl, 0.62 mM MgSO4, 1.8 mM CaCl2, 10 mM HEPES, 6 mM D(+)-Glucose, 0.2% BSA, pH 7.4).
# The compounds are pre-diluted in HEPES buffer (20 mM, pH 7.4), whereby the final DMSO content in the assay is kept at 1%. The compounds are pre-diluted in order to generate dose response series on the microplates. The dose response series consist of 10 concentrations for each compound from 30 uM final to 1 nM final. From all compound wells the resulting signals are referred to control wells (located on each plate besides the compound wells) in terms of % activity.
# From these % activity values—along with the corresponding compound concentrations—IC50 values are fitted for each compound using standard fitting programs such as Graphpad Prism. Here the method “log(inhibitor) vs. response—Variable slope” is used.
# T1 sequence (Q9HBW0 whole entry): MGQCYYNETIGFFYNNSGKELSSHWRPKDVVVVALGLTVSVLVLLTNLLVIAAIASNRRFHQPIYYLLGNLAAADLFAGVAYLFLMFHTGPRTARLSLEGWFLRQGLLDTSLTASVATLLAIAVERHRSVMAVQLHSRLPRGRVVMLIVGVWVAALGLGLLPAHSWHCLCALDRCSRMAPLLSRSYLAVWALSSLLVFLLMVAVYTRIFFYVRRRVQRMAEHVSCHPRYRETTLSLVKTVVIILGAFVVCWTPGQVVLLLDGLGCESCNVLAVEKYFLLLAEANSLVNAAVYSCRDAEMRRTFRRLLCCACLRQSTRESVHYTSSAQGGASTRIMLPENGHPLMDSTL
row,SMILES,IC50
1,Cc1ccc(CN2CCCCC2c2nc3ccc(Cl)cc3[nH]2)cc1C(F)(F)F (stereo not drawn) [compound 90],500 to 5000 nM
2,"Cc1cccc(CN2CCCCC2c2nc3ccc(Cl)cc3[nH]2)c1 (stereo not drawn) [compound 91, 6-Chloro 2-[1-(3-methyl-benzyl)-piperidin-2-yl]-1H-benzo-imidazole]",< 500 nM
3,FC(F)(F)c1cccc(CN2CCCCC2c2nc3ccc(Br)cc3[nH]2)c1 (stereo not drawn) [compound 92],500 to 5000 nM
4,Cc1ccc(CN2CCCCC2c2nc3ccc(Br)cc3[nH]2)cc1C(F)(F)F (stereo not drawn) [compound 93],500 to 5000 nM
5,"CC1(C)CCC(C)(C)c2cc(CN3CCCCC3c3nc4ccc(Br)cc4[nH]3)ccc21 (stereo not drawn) [compound 94, 6-Bromo-2-[1-(5,5,8,8-tetramethyl-5,6,7,8-tetrahydro-naphthalen-2-ylmethyl)-piperidin-2-yl]-1H-benzo-imidazole]",5000 to 15000 nM
6,"Cc1cccc(CN2CCCCC2c2nc3ccc(Br)cc3[nH]2)c1 (stereo not drawn) [compound 95, 6-Bromo-2-[1-(3-methyl-benzyl)-piperidin-2-yl]-1H-benzo-imidazole]",< 500 nM
7,"Cc1ccc(CN2CCCCC2c2nc3ccc(Br)cc3[nH]2)cc1C (stereo not drawn) [compound 96, 6-Bromo-2-[1-(3,4-dimethyl-benzyl)-piperidin-2-yl]-1H-benzo-imidazole]",< 500 nM
8,"Cc1cc(Cl)cc2nc(C3CCCCN3Cc3ccc4c(c3)C(C)(C)CCC4(C)C)[nH]c12 (stereo not drawn) [compound 97, 5-Chloro-7-methyl-2-[1-(5,5,8,8-tetramethyl-5,6,7,8-tetrahydro-naphthalen-2-ylmethyl)-piperidin-2-yl]-1H-benzo-imidazole]",500 to 5000 nM
9,Cc1cc(Cl)cc2nc(C3CCCCN3Cc3cccc(C(F)(F)F)c3)[nH]c12 (stereo not drawn) [compound 98],500 to 5000 nM
10,"Cc1cccc(CN2CCCCC2c2nc3cc(Cl)cc(C)c3[nH]2)c1 (stereo not drawn) [compound 99, 5-Chloro-7-methyl-2-[1-(3-methyl-benzyl)-piperidin-2-yl]-1H-benzo-imidazole]",500 to 5000 nM
11,"Cc1ccc(CN2CCCCC2c2nc3cccc(C)c3[nH]2)cc1C (stereo not drawn) [compound 100, 2-[1-(3,4-Dimethyl-benzyl)-piperidin-2-yl]-7-methyl-1H-benzo-imidazole]",< 500 nM
12,"CC(c1ccccc1)N1CCCCC1c1nc2cc(F)ccc2[nH]1 (stereo not drawn) [compound 101, 5-Fluoro-2-[1-(1-phenyl-ethyl)-piperidin-2-yl]-1H-benzo-imidazole]",500 to 5000 nM
13,"Fc1ccc2[nH]c(C3CCCCN3Cc3ccccc3)nc2c1 (stereo not drawn) [compound 102, 2-(1-Benzyl-piperidin-2-yl)-5-fluoro-1H-benzo-imidazole]",500 to 5000 nM
14,"Cc1ccc(CN2CCCCC2c2nc3cc(F)ccc3n2C)cc1C (stereo not drawn) [compound 103, 2-[1-(3,4-Dimethyl-benzyl)-piperidin-2-yl]-5-fluoro-1-methyl-1H-benzo-imidazole]",500 to 5000 nM
15,"Fc1ccc2[nH]c(C3CCCCN3CCc3ccccc3)nc2c1 (stereo not drawn) [compound 104, 5-Fluoro-2-(1-phenethyl-piperidin-2-yl)-1H-benzo-imidazole]",500 to 5000 nM
16,Cc1ccc(CN2CCCCC2c2nc3cc(Cl)cc(C)c3[nH]2)cc1C (stereo not drawn) [compound 105],500 to 5000 nM
17,"Cc1cccc(CN2CCCCC2c2nc3cc(C)c(Cl)cc3[nH]2)c1 (stereo not drawn) [compound 106, 6-Chloro-5-methyl-2-[1-(3-methyl-benzyl)-piperidin-2-yl]-1H-benzo-imidazole]",< 500 nM
18,"COc1ccc(CN2CCCCC2c2cc3cc(F)ccc3[nH]2)cc1 (stereo not drawn) [compound 107, 5-Fluoro-2-[1-(4-methoxy-benzyl)-piperidin-2-yl]-1H-indole]",< 500 nM
19,"Cc1ccc(CN2CCCCC2c2cc3cc(F)ccc3[nH]2)cc1 (stereo not drawn) [compound 108, 5-Fluoro2-[1-(4-methyl-benzyl)-piperidin-2-yl]-1H-indole]",< 500 nM
20,"COc1cccc(CN2CCCCC2c2cc3cc(F)ccc3[nH]2)c1 (stereo not drawn) [compound 109, 5-Fluoro-2-[1-(3-methoxy-benzyl)-piperidin-2-yl]-1H-indole]",< 500 nM
21,"Cn1nc(CN2CCCCC2c2cc3cc(F)ccc3[nH]2)c2ccccc21 (stereo not drawn) [compound 110, 3-[2-(5-Fluoro-1H-indol-2-yl)-piperidin-1-ylmethyl]-1-methyl-1H-indazole]",< 500 nM
22,"Fc1ccc(CCN2CCCCC2c2cc3cc(F)ccc3[nH]2)cc1 (stereo not drawn) [compound 111, 5-Fluoro-2-{1-[2-(4-fluoro-phenyl)-ethyl]-piperidin-2-yl}-1H-indole]",500 to 5000 nM
23,"Fc1ccc(CN2CCCCC2c2cc3cc(F)ccc3[nH]2)c(F)c1 (stereo not drawn) [compound 112, 2-[1-(2,4-Difluoro-benzyl)-piperidin-2-yl]-5-fluoro-1H-indole]",< 500 nM
24,"Cc1cc2nc(C3CCCCN3Cc3ccc4c(c3)C(C)(C)CCC4(C)C)[nH]c2cc1Cl (stereo not drawn) [compound 113, 6-Chloro-5-methyl-2-[1-(5,5,8,8-tetramethyl-5,6,7,8-tetrahydro-naphthalen-2-ylmethyl)-piperidin-2-yl]-1H-benzo-imidazole]",500 to 5000 nM
25,"Cc1ccc(CN2CCCCC2c2nc3cc(C)c(Cl)cc3[nH]2)cc1C (stereo not drawn) [compound 114, 6-Chloro-2-[1-(3,4-dimethyl-benzyl)-piperidin-2-yl]-5-methyl-1H-benzo-imidazole]",< 500 nM
26,NS(=O)(=O)c1ccc2nc(C3CCCCN3Cc3cccc(C(F)(F)F)c3)[nH]c2c1 (stereo not drawn) [compound 115],500 to 5000 nM
27,"Cc1ccc(CN2CCCCC2c2nc3ccc(S(N)(=O)=O)cc3[nH]2)cc1C (stereo not drawn) [compound 116, 2-[1-(3,4-Dimethyl-benzyl)-piperidin-2-yl]-3H-benzo-imidazole-5-sulfonic acid amide]",< 500 nM
28,Cc1ccc(CN2CCCCC2c2nc3ccc(S(N)(=O)=O)cc3[nH]2)cc1C(F)(F)F (stereo not drawn) [compound 117],500 to 5000 nM

# Results, then the compound that gave them:
row,IC50,SMILES
1,500 to 5000 nM,"CC1(C)CCC(C)(C)c2cc(CN3CCCCC3c3nc4ccc(S(N)(=O)=O)cc4[nH]3)ccc21 (stereo not drawn) [compound 118, 2-[1-(5,5,8,8-Tetramethyl-5,6,7,8-tetrahydro-naphthalen-2-ylmethyl)-piperidin-2-yl]-3H-benzo-imidazole-5-sulfonic acid amide]"
2,< 500 nM,"Cc1ccc(CN2CCCC[C@@H]2c2nc3cc(F)ccc3[nH]2)cc1C [compound 119, 2-[(R)-1-(3,4-Dimethyl-benzyl)-piperidin-2-yl]-5-fluoro-1H-benzo-imidazole]"
3,< 500 nM,"Fc1ccc(CN2CCCCC2c2nc3cc(Cl)cnc3[nH]2)cc1 (stereo not drawn) [compound 120, 6-Chloro-2-[1-(4-fluoro-benzyl)-piperidin-2-yl]-3H-imidazo[4,5-b]pyridine]"
4,< 500 nM,"CCc1nc(CN2CCCCC2c2nc3cc(F)ccc3[nH]2)cs1 (stereo not drawn) [compound 121, 2-[1-(2-Ethyl-thiazol-4-ylmethyl)-piperidin-2-yl]-5-fluoro-1H-benzo-imidazole]"
5,500 to 5000 nM,"Fc1ccc2[nH]c(C3CCCCN3Cc3csc(Cl)n3)nc2c1 (stereo not drawn) [compound 122, 2-[1-(2-Chloro-thiazol-4-ylmethyl)-piperidin-2-yl]-5-fluoro-1H-benzo-imidazole]"
6,500 to 5000 nM,Cc1nc(CN2CCCCC2c2nc3cc(F)ccc3[nH]2)cs1 (stereo not drawn) [compound 123]
7,500 to 5000 nM,"Fc1ccc(CN2CCCC[C@H]2c2cc3ccccc3[nH]2)cc1 [compound 124, 2-[(S)-1-(4-Fluoro-benzyl)-piperidin-2-yl]-1H-indole]"
8,< 500 nM,"Fc1ccc(CN2CCCC[C@@H]2c2cc3ccccc3[nH]2)cc1 [compound 125, 2-[(R)-1-(4-Fluoro-benzyl)-piperidin-2-yl]-1H-indole]"
9,< 500 nM,Cc1cc2nc(C3CCCCN3Cc3cccc(C(F)(F)F)c3)[nH]c2cc1Cl (stereo not drawn) [compound 126]
10,500 to 5000 nM,Cc1cc2nc(C3CCCCN3Cc3ccc(C)c(C(F)(F)F)c3)[nH]c2cc1Cl (stereo not drawn) [compound 127]
11,< 500 nM,"Cc1ccc(CN2CCCCC2c2nc3cc(Cl)cnc3[nH]2)cc1C (stereo not drawn) [compound 128, 6-Chloro-2-[1-(3,4-dimethyl-benzyl)-piperidin-2-yl]-3H-imidazo[4,5-b]pyridine]"
12,< 500 nM,"Cc1cccc(CN2CCCCC2c2nc3ccc(S(N)(=O)=O)cc3[nH]2)c1 (stereo not drawn) [compound 129, 2-[1-(3-Methyl-benzyl)-piperidin-2-yl]-3H-benzo-imidazole-5-sulfonic acid amide]"
13,< 500 nM,"Fc1ccc(CN2CCCCC2c2nc3cccnc3[nH]2)cc1 (stereo not drawn) [compound 130, 2-[1-(4-Fluoro-benzyl)-piperidin-2-yl]-3H-imidazo[4,5-b]pyridine]"
14,500 to 5000 nM,"Fc1ccc(CN2CCCC[C@H]2c2nc3cc(F)ccc3[nH]2)cc1 [compound 131, 5-Fluoro-2-[(S)-1-(4-fluoro-benzyl)-piperidin-2-yl]-1H-benzo-imidazole]"
